Key:
[1] = Test Example 1: conversion of compound 2A into activated form in monkey serum; assay type: in vitro ADME; conditions: for compound 2A (measured values, %): monkey serum, 50 μM, 37° C.
Method: The percentages of compound 2A produced in Example 2 being converted into an activated form in sera of humans, mice, monkeys, and dogs were determined. The activated form is in a rapid equilibrium between the lactone form and the carboxylate form, which were quantified separately.
Compound 2A was incubated at 37° C. at a concentration of 50 μM in sera of humans, mice, monkeys, and dogs. Incubation was terminated at a given time (0, 30, 60, 120, and 360 minutes), and the samples were analyzed by HPLC after deproteinization treatments.
Conditions for the HPLC analysis are as follows: • HPLC conditions • Column: Develosil C30-UG-3, 3 μm, 50×4.6 mm I.D • Column Temperature: constant temperature at approximately 25° C. • Mobile phase: A: 10 mM phosphate buffer (pH4.7) • B: acetonitrile • /B (min): 90/10(0)→90/10(0.4)→40/60(6)→2/98(8)→90/10(9)→90/10(15)
Flow rate: 1.0 mL/min • Detection: photodiode array detector, detection wavelength 350 nm • Amount injected: 30 μL
(§1) Generally, camptothecins in solution are in a rapid equilibrium between a structure in which the carbonyl at position 3 forms a 6-membered cyclic ester with the oxygen at position 2, and its open-ring structure. The lactone form refers to the former condition and the carboxylate form refers to the latter condition.

[2] = Test Example 5: conversion of compound 2A into activated form in human sera; assay type: in vitro ADME; conditions: for compound 2A (measured values, %): Test Example 5, human sera, 50 μM, 37° C.
Method: (§2) The percentages of compound 2A produced in Example 2 being converted into an activated form in sera of humans, rats, mice, monkeys, and dogs were determined. The activated form is in a rapid equilibrium between the lactone form and the carboxylate form, which were quantified separately.
(§3) Compound 2A was incubated at 37° C. at a concentration of 50 μM in sera of humans, mice, rats, monkeys, and dogs. Incubation was terminated at a given time (0, 30, 60, 120, and 360 minutes), and the samples were analyzed by HPLC after deproteinization treatments.
(§4) Conditions for the HPLC analysis are as follows: • HPLC conditions • Column: Develosil C30-UG-3, 3 μm, 35×4.6 mm I.D • Column Temperature: constant temperature at approximately 25° C. • Mobile phase: A: 10 mM phosphate buffer (pH4.7) • B: acetonitrile • /B (min): 90/10(0)→90/10(0.4)→40/60(6)→2/98(8)→90/10(9)→90/10(15) • Flow rate: 1.0 mL/min • Detection: photodiode array detector, detection wavelength 350 nm • Amount injected: 30 μL
as §1

[3] = Test Example 5: conversion of compound 2A into activated form in mouse sera; assay type: in vitro ADME; conditions: for compound 2A (measured values, %): Test Example 5, mouse sera, 50 μM, 37° C.
Method: as §2, §3, §4, §1

[4] = Test Example 5: conversion of compound 2A into activated form in rat sera; assay type: in vitro ADME; conditions: for compound 2A (measured values, %): Test Example 5, rat sera, 50 μM, 37° C.
Method: as §2, §3, §4, §1

[5] = Test Example 2: stability at various pH values in buffers; assay type: physicochemical; conditions: for Percent remaining: 25 μM, 25° C.
Method: The stability of compound 2A at various pH values was determined. The present compound was placed in buffers of various pHs at a concentration of 25 μM. After incubation at 25° C. for 0, 3, and 6 hours, the compound was analyzed by HPLC.
The buffers used at each pH are shown below. • pH2.0: 50 mM HCl-KCl buffer • pH3.0: 50 mM citrate buffer • pH4.0: 50 mM citrate buffer • pH5.0: 50 mM succinate buffer • pH6.5: 50 mM phosphate buffer • pH7.4: 50 mM phosphate buffer
as §4, with “for” for “for the”, “50×4.6” for “35×4.6”, “•” for “• /B”

[6] = Test Example 3: solubility in distilled water; assay type: physicochemical; conditions: distilled water; read-out: Solubility in distilled water
From the text: The solubility of the water-soluble prodrugs obtained in the Examples (compounds 1A to 8A) in distilled water was compared to the solubility of (9S)-9-ethyl-9-hydroxy-1-pentyl-1H,12H-pyrano[3″,4″:6′,7′]indolizino[1′,2′:6,5]pyrido[4,3,2-de]quinazoline-10,13 (9H,15H)-dione (representative compound in Patent document 2: reference compound 1).

With `CCCCCN1C=Nc2cccc3nc4c(c1c23)Cn1c-4cc2c(c1=O)COC(=O)[C@@]2(CC)OC(=O)CN(C)C(=O)CN.Cl` [Compound 2A, (9S)-9-Ethyl-9-(glycyl-sarcosyloxy)-1-pentyl-1H,12H-pyrano[3″,4″:6′,7′]indolizino[1′,2′:6,5]pyrido[4,3,2-de]quinazoline-10,13(9H,15H)-dione hydrochloride] the “conversion to the lactone form (in words)” value (shortened to “conversion”) ([1]; monkey sera, Test Example 1) was “quickly converted to the lactone form”, the “compound 2A (measured values, %)” value ([1]; incubation 0 minutes) was 0% and the “compound 2A (measured values, %)” value ([1]; incubation 30 minutes) was 0%. For the same compound, the “compound 2A (measured values, %)” value ([1]; incubation 60 minutes) was 0%, the “compound 2A (measured values, %)” value ([1]; incubation 120 minutes) was 0% and the “compound 2A (measured values, %)” value ([1]; incubation 360 minutes) was 0%. For the same compound, the “compound 2A (measured values, %)” value ([2]; incubation 0 minutes) was 0%, the “compound 2A (measured values, %)” value ([2]; incubation 30 minutes) was 0% and the “compound 2A (measured values, %)” value ([2]; incubation 60 minutes) was 0%. For the same compound, the “compound 2A (measured values, %)” value ([2]; incubation 120 minutes) was 0%, the “compound 2A (measured values, %)” value ([2]; incubation 360 minutes) was 0% and the “conversion” value ([2]; human sera, Test Example 5) was “quickly converted to the lactone form”. The “compound 2A (measured values, %)” value ([3]; incubation 0 minutes) was 0%, the “compound 2A (measured values, %)” value ([3]; incubation 30 minutes) was 0% and the “compound 2A (measured values, %)” value ([3]; incubation 60 minutes) was 0%. For the same compound, the “compound 2A (measured values, %)” value ([3]; incubation 120 minutes) was 0%, the “compound 2A (measured values, %)” value ([3]; incubation 360 minutes) was 0% and the “conversion” value ([3]; mouse sera, Test Example 5) was “quickly converted to the lactone form”. The “compound 2A (measured values, %)” value ([4]; incubation 0 minutes) was 0%, the “compound 2A (measured values, %)” value ([4]; incubation 30 minutes) was 0% and the “compound 2A (measured values, %)” value ([4]; incubation 60 minutes) was 0%. For the same compound, the “compound 2A (measured values, %)” value ([4]; incubation 120 minutes) was 0%, the “compound 2A (measured values, %)” value ([4]; incubation 360 minutes) was 0% and the “conversion” value ([4]; rat sera, Test Example 5) was “quickly converted to the lactone form”. It also gave a Percent remaining ([5]; pH 2.0, 50 mM HCl-KCl buffer, 0 hr) of 100%, a Percent remaining ([5]; pH 2.0, 50 mM HCl-KCl buffer, 3 hr) of 101.6% and a Percent remaining ([5]; pH 2.0, 50 mM HCl-KCl buffer, 6 hr) of 101.1%. It also gave a Percent remaining ([5]; pH 3.0, 50 mM citrate buffer, 0 hr) of 100%, a Percent remaining ([5]; pH 3.0, 50 mM citrate buffer, 3 hr) of 100.3% and a Percent remaining ([5]; pH 3.0, 50 mM citrate buffer, 6 hr) of 101.1%. For the same compound, the Percent remaining ([5]; pH 4.0, 50 mM citrate buffer, 0 hr) was 100%, the Percent remaining ([5]; pH 4.0, 50 mM citrate buffer, 3 hr) was 98.2% and the Percent remaining ([5]; pH 4.0, 50 mM citrate buffer, 6 hr) was 96.1%. For the same compound, the Percent remaining ([5]; pH 5.0, 50 mM succinate buffer, 0 hr) was 100%, the Percent remaining ([5]; pH 5.0, 50 mM succinate buffer, 3 hr) was 76.6% and the Percent remaining ([5]; pH 5.0, 50 mM succinate buffer, 6 hr) was 58.7%. For the same compound, the Percent remaining ([5]; pH 6.5, 50 mM phosphate buffer, 0 hr) was 100%, the Percent remaining ([5]; pH 6.5, 50 mM phosphate buffer, 3 hr) was 0% and the Percent remaining ([5]; pH 6.5, 50 mM phosphate buffer, 6 hr) was 0%. For the same compound, the Percent remaining ([5]; pH 7.4, 50 mM phosphate buffer, 0 hr) was 100%, the Percent remaining ([5]; pH 7.4, 50 mM phosphate buffer, 3 hr) was 0% and the Percent remaining ([5]; pH 7.4, 50 mM phosphate buffer, 6 hr) was 0%. For the same compound, the “stability (in words)” value ([5]; up to pH3) was “stable” and the solubility [6] was over 10000 µg/mL.
